ChEMBL document CHEMBL5055633, “Amphipathic Barbiturates as Mimics of Antimicrobial Peptides and the Marine Natural Products Eusynstyelamides with Activity against Multi-resistant Clinical Isolates” (J Med Chem, 2021)

How the values were obtained:
[1] = Antimicrobial activity against New Delhi metallo-beta lactamase-1 Klebsiella pneumoniae K66-45 assessed as reduction in bacterial growth incubated for 48 hrs by microdilution method; type: functional
Acinetobacter baumannii [2] = test: Antimicrobial activity against oxacillinase-23 producing Acinetobacter baumannii K47-42 assessed as reduction in bacterial growth incubated for 48 hrs by microdilution method; type: functional
Pseudomonas aeruginosa [3] = test: Antimicrobial activity against Pseudomonas aeruginosa PAO1 assessed as reduction in bacterial growth incubated for 48 hrs by microdilution susceptibility test; type: functional
Escherichia coli [4] = test: Antimicrobial activity against Escherichia coli ATCC 25922 assessed as reduction in bacterial growth incubated for 48 hrs by microdilution susceptibility test; type: functional
Acinetobacter baumannii [5] = test: Antimicrobial activity against oxacillinase-23 producing Acinetobacter baumannii K63-58 assessed as reduction in bacterial growth incubated for 48 hrs by microdilution method; type: functional
[6] = Hemolytic activity in human erythrocytes incubated for 1 hr by microplate reader; type: functional, cell-based; conditions: erythrocyte
[7] = Antimicrobial activity against New Delhi metallo-beta lactamase-1 and oxacillinase -181 producing Klebsiella pneumoniae 50531633 assessed as reduction in bacterial growth incubated for 48 hrs by microdilution method; type: functional
Escherichia coli [8] = test: Antimicrobial activity against verona integron-encoded metallo-beta-lactamase-29-producing Escherichia coli 50639799 assessed as reduction in bacterial growth incubated for 48 hrs by microdilution method; type: functional
Escherichia coli [9] = test: Antimicrobial activity against New Delhi metallo-beta lactamase-1 producing Escherichia coli 50739822 assessed as reduction in bacterial growth incubated for 48 hrs by microdilution method; type: functional
Escherichia coli [10] = test: Antimicrobial activity against imipenem-type carbapenemase-26 producing Escherichia coli 50857972 assessed as reduction in bacterial growth incubated for 48 hrs by microdilution method; type: functional
Staphylococcus aureus [11] = test: Antimicrobial activity against extended spectrum-lactamase-carbapenemas producing Staphylococcus aureus strain IHT 99040 assessed as reduction in bacterial growth incubated for 48 hrs by microdilution method; type: functional
Enterococcus faecium [12] = test: Antimicrobial activity against extended spectrum-lactamase-carbapenemas producing Enterococcus faecium strain 50901530 assessed as reduction in bacterial growth incubated for 48 hrs by microdilution method; type: functional
Staphylococcus aureus [13] = test: Antimicrobial activity against extended spectrum-lactamase-carbapenemas producing Staphylococcus aureus strain WIS assessed as reduction in bacterial growth incubated for 48 hrs by microdilution method; type: functional
[14] = Antimicrobial activity against verona integron-encoded metallo-beta-lactamase -1 producing Klebsiella pneumoniae 50667959 assessed as reduction in bacterial growth incubated for 48 hrs by microdilution method; type: functional
Pseudomonas aeruginosa [15] = test: Antimicrobial activity against verona integron-encoded metallo-beta-lactamase-4 producing Pseudomonas aeruginosa K34-73 assessed as reduction in bacterial growth incubated for 48 hrs by microdilution method; type: functional
Enterococcus faecium [16] = test: Antimicrobial activity against extended spectrum-lactamase-carbapenemas producing Enterococcus faecium strain K36-18 assessed as reduction in bacterial growth incubated for 48 hrs by microdilution method; type: functional
Pseudomonas aeruginosa [17] = test: Antimicrobial activity against imipenem-type carbapenemase-14 producing Pseudomonas aeruginosa K44-24 assessed as reduction in bacterial growth incubated for 48 hrs by microdilution method; type: functional
Enterococcus faecium [18] = test: Antimicrobial activity against extended spectrum-lactamase-carbapenemas producing Enterococcus faecium strain 50673722 assessed as reduction in bacterial growth incubated for 48 hrs by microdilution method; type: functional
Escherichia coli [19] = test: Antimicrobial activity against New Delhi metallo-beta lactamase-1 producing Escherichia coli 50676002 assessed as reduction in bacterial growth incubated for 48 hrs by microdilution method; type: functional
Pseudomonas aeruginosa [20] = test: Antimicrobial activity against verona integron-encoded metallo-beta-lactamase producing Pseudomonas aeruginosa 50692520 assessed as reduction in bacterial growth incubated for 48 hrs by microdilution method; type: functional
Staphylococcus aureus [21] = test: Antimicrobial activity against extended spectrum-lactamase-carbapenemas producing Staphylococcus aureus NCTC 10442 assessed as reduction in bacterial growth incubated for 48 hrs by microdilution method; type: functional
Acinetobacter baumannii [22] = test: Antimicrobial activity against oxacillinase-23 producing Acinetobacter baumannii K44-35 assessed as reduction in bacterial growth incubated for 48 hrs by microdilution method; type: functional
Pseudomonas aeruginosa [23] = test: Antimicrobial activity against New Delhi metallo-beta lactamase-1 producing Pseudomonas aeruginosa 50692172 assessed as reduction in bacterial growth incubated for 48 hrs by microdilution method; type: functional
Escherichia coli [24] = test: Antimicrobial activity against oxacillinase-producing Escherichia coli 50579417 assessed as reduction in bacterial growth incubated for 48 hrs by microdilution method; type: functional
Acinetobacter baumannii [25] = test: Antimicrobial activity against oxacillinase-24 producing Acinetobacter baumannii K55-13 assessed as reduction in bacterial growth incubated for 48 hrs by microdilution method; type: functional
[26] = Antimicrobial activity against carbapenemase producing Klebsiella pneumoniae K47-25 assessed as reduction in bacterial growth incubated for 48 hrs by microdilution method; type: functional
HepG2 = test: Cytotoxicity against human HepG2 cells assessed as reduction in cell viability incubated for 24 hrs by colorimetric tetrazolium assay; type: functional, cell-based; conditions: HepG2, 24 h
[27] = Antimicrobial activity against oxacillinase-245 producing Klebsiella pneumoniae 50625602 assessed as reduction in bacterial growth incubated for 48 hrs by microdilution method; type: functional
MRC5 = test: Cytotoxicity against human MRC5 cells assessed as reduction in cell viability incubated for 24 hrs by colorimetric tetrazolium assay; type: functional, cell-based; conditions: MRC5, 24 h
[28] = test system: Corynebacterium glutamicum; test: Antimicrobial activity against Corynebacterium glutamicum ATCC 13032 assessed as reduction in bacterial growth incubated for 48 hrs by microdilution susceptibility test; type: functional
Acinetobacter baumannii [29] = test: Antimicrobial activity against oxacillinase-58 producing Acinetobacter baumannii K12-21 assessed as reduction in bacterial growth incubated for 48 hrs by microdilution method; type: functional
Staphylococcus aureus [30] = test: Antimicrobial activity against extended spectrum-lactamase-carbapenemas producing Staphylococcus aureus strain 85/2082 assessed as reduction in bacterial growth incubated for 48 hrs by microdilution method; type: functional
Staphylococcus aureus [31] = test: Antimicrobial activity against Staphylococcus aureus ATCC 9144 assessed as reduction in bacterial growth incubated for 48 hrs by microdilution susceptibility test; type: functional
Pseudomonas aeruginosa [32] = test: Antimicrobial activity against verona integron-encoded metallo-beta-lactamase-2 producing Pseudomonas aeruginosa K34-7 assessed as reduction in bacterial growth incubated for 48 hrs by microdilution method; type: functional
Enterococcus faecium [33] = test: Antimicrobial activity against extended spectrum-lactamase-carbapenemas producing Enterococcus faecium strain TUH.50-22 assessed as reduction in bacterial growth incubated for 48 hrs by microdilution method; type: functional
Staphylococcus aureus [34] = test: Antimicrobial activity against extended spectrum-lactamase-carbapenemas producing Staphylococcus aureus N315 assessed as reduction in bacterial growth incubated for 48 hrs by microdilution method; type: functional
Enterococcus faecium [35] = test: Antimicrobial activity against extended spectrum-lactamase-carbapenemas producing Enterococcus faecium strain 50758899 assessed as reduction in bacterial growth incubated for 48 hrs by microdilution method; type: functional

Structure (SMILES) | MIC [1] [µg/mL] | MIC (Acinetobacter baumannii [2]) [µg/mL] | MIC (Pseudomonas aeruginosa [3]) [µg/mL] | MIC (Escherichia coli [4]) [µg/mL] | MIC (Acinetobacter baumannii [5]) [µg/mL] | EC50 [6] [µg/mL] | MIC [7] [µg/mL] | MIC (Escherichia coli [8]) [µg/mL] | MIC (Escherichia coli [9]) [µg/mL] | MIC (Escherichia coli [10]) [µg/mL] | MIC (Staphylococcus aureus [11]) [µg/mL] | MIC (Enterococcus faecium [12]) [µg/mL] | MIC (Staphylococcus aureus [13]) [µg/mL] | MIC [14] [µg/mL] | MIC (Pseudomonas aeruginosa [15]) [µg/mL] | MIC (Enterococcus faecium [16]) [µg/mL] | MIC (Pseudomonas aeruginosa [17]) [µg/mL] | MIC (Enterococcus faecium [18]) [µg/mL] | MIC (Escherichia coli [19]) [µg/mL] | MIC (Pseudomonas aeruginosa [20]) [µg/mL] | other results
NCCCCN1C(=O)N(CCCCN)C(=O)C(Cc2ccc(F)c3ccccc23)(Cc2ccc(F)c3ccccc23)C1=O.O=C(O)C(F)(F)F.O=C(O)C(F)(F)F | 32 | 32 | 8 | 16 | 16 | 160 | 16 | 16 | 16 | 16 | 8 | 4 | 8 | 32 | 32 | 8 | 32 | 8 | 16 | 16 | MIC (Staphylococcus aureus [21]): 8 µg/mL; MIC (Acinetobacter baumannii [22]): 32 µg/mL; MIC (Pseudomonas aeruginosa [23]): 16 µg/mL; MIC (Escherichia coli [24]): 16 µg/mL; MIC (Acinetobacter baumannii [25]): 32 µg/mL; MIC [26]: > 32 µg/mL; IC50 (HepG2): 5 µg/mL; MIC [27]: 32 µg/mL; IC50 (MRC5): 2 µg/mL; MIC [28]: 1 µg/mL; MIC (Acinetobacter baumannii [29]): 32 µg/mL; MIC (Staphylococcus aureus [30]): 4 µg/mL; MIC (Staphylococcus aureus [31]): 4 µg/mL; MIC (Pseudomonas aeruginosa [32]): 32 µg/mL; MIC (Enterococcus faecium [33]): 4 µg/mL; MIC (Staphylococcus aureus [34]): 8 µg/mL; MIC (Enterococcus faecium [35]): 8 µg/mL
N=C(N)NCCCCN1C(=O)N(CCCCNC(=N)N)C(=O)C(Cc2ccc(Br)c(Cl)c2)(Cc2ccc(Br)c(Cl)c2)C1=O.O=C(O)C(F)(F)F.O=C(O)C(F)(F)F | 8 | 8 | 8 | 2 | 8 | 77 | 4 | 4 | 4 | 4 | 2 | 2 | 2 | 8 | 8 | 4 | 16 | 4 | 4 | 16 | MIC (Staphylococcus aureus [21]): 4 µg/mL; MIC (Acinetobacter baumannii [22]): 8 µg/mL; MIC (Pseudomonas aeruginosa [23]): 32 µg/mL; MIC (Escherichia coli [24]): 4 µg/mL; MIC (Acinetobacter baumannii [25]): 8 µg/mL; MIC [26]: 4 µg/mL; IC50 (HepG2): 15 µg/mL; MIC [27]: 4 µg/mL; IC50 (MRC5): 36 µg/mL; MIC [28]: 0.25 µg/mL; MIC (Acinetobacter baumannii [29]): 8 µg/mL; MIC (Staphylococcus aureus [30]): 2 µg/mL; MIC (Staphylococcus aureus [31]): 0.5 µg/mL; MIC (Pseudomonas aeruginosa [32]): 16 µg/mL; MIC (Enterococcus faecium [33]): 2 µg/mL; MIC (Staphylococcus aureus [34]): 2 µg/mL; MIC (Enterococcus faecium [35]): 4 µg/mL
NCCCCN1C(=O)N(CCCCN)C(=O)C(Cc2ccc(C(F)(F)F)cc2)(Cc2ccc(C(F)(F)F)cc2)C1=O.O=C(O)C(F)(F)F.O=C(O)C(F)(F)F | > 32 | > 32 | 64 | 128 | > 32 | > 398 | > 32 | > 32 | > 32 | > 32 | > 32 | > 32 | > 32 | > 32 | > 32 | > 32 | > 32 | > 32 | > 32 | > 32 | MIC (Staphylococcus aureus [21]): > 32 µg/mL; MIC (Acinetobacter baumannii [22]): > 32 µg/mL; MIC (Pseudomonas aeruginosa [23]): > 32 µg/mL; MIC (Escherichia coli [24]): > 32 µg/mL; MIC (Acinetobacter baumannii [25]): > 32 µg/mL; MIC [26]: > 32 µg/mL; IC50 (HepG2): 40 µg/mL; MIC [27]: > 32 µg/mL; IC50 (MRC5): 16 µg/mL; MIC [28]: 4 µg/mL; MIC (Acinetobacter baumannii [29]): > 32 µg/mL; MIC (Staphylococcus aureus [30]): > 32 µg/mL; MIC (Staphylococcus aureus [31]): 64 µg/mL; MIC (Pseudomonas aeruginosa [32]): > 32 µg/mL; MIC (Enterococcus faecium [33]): > 32 µg/mL; MIC (Staphylococcus aureus [34]): > 32 µg/mL; MIC (Enterococcus faecium [35]): > 32 µg/mL
NCCCCN1C(=O)N(CCCCN)C(=O)C(Cc2ccc(Br)c(Cl)c2)(Cc2ccc(Br)c(Cl)c2)C1=O.O=C(O)C(F)(F)F.O=C(O)C(F)(F)F | 32 | 32 | 32 | 16 | 32 | 172 | 16 | 16 | 16 | 16 | 4 | 8 | 8 | 32 | 32 | 16 | 32 | 16 | 16 | 32 | MIC (Staphylococcus aureus [21]): 8 µg/mL; MIC (Acinetobacter baumannii [22]): 32 µg/mL; MIC (Pseudomonas aeruginosa [23]): 32 µg/mL; MIC (Escherichia coli [24]): 16 µg/mL; MIC (Acinetobacter baumannii [25]): 32 µg/mL; MIC [26]: 32 µg/mL; IC50 (HepG2): 6 µg/mL; MIC [27]: 32 µg/mL; IC50 (MRC5): 10 µg/mL; MIC [28]: 1 µg/mL; MIC (Acinetobacter baumannii [29]): 32 µg/mL; MIC (Staphylococcus aureus [30]): 4 µg/mL; MIC (Staphylococcus aureus [31]): 4 µg/mL; MIC (Pseudomonas aeruginosa [32]): 32 µg/mL; MIC (Enterococcus faecium [33]): 4 µg/mL; MIC (Staphylococcus aureus [34]): 8 µg/mL; MIC (Enterococcus faecium [35]): 16 µg/mL
